Data reported in ChEMBL document CHEMBL1150412, “1,5-Diphenylpyrrole derivatives as antimycobacterial agents. Probing the influence on antimycobacterial activity of lipophilic substituents at the phenyl rings” (J Med Chem, 2008).
Values after ≈ are worked out from the molar mass of the structure shown.

Legend:
Mycobacterium avium = assay: Antimycobacterial activity against Mycobacterium avium CIP 103317; type: functional
[1] = Protection index, ratio of MNTD50 for african green monkey Vero cells to MIC for Mycobacterium tuberculosis 103471; type: functional
Vero = assay: Cytotoxicity against african green monkey Vero cells after 5 days; type: cell-based; settings: chlorocebus sabaeus, 120 h
[2] = test system: Mycobacterium tuberculosis; assay: Antimycobacterial activity against Mycobacterium tuberculosis 103471; type: functional
[3] = test system: Mycolicibacterium smegmatis; assay: Antimycobacterial activity against Mycobacterium smegmatis CIP 103599; type: functional
Mycobacterium marinum = assay: Antimycobacterial activity against Mycobacterium marinum CIP 6423; type: functional
[4] = test system: Mycobacterium tuberculosis; assay: Antimycobacterial activity against Mycobacterium tuberculosis H37Rv; type: functional
[5] = test system: Mycobacterium tuberculosis; assay: Antimycobacterial activity against Mycobacterium tuberculosis clinical isolates by agar dilution method; type: functional
[6] = test system: Mycobacterium tuberculosis; assay: Antimycobacterial activity against Mycobacterium tuberculosis H37Rv in […] cells assessed as reduction in number of surviving bacteria at 0.5 ug/mL relative to control; type: functional
[7] = test system: Mycobacterium tuberculosis; assay: Antimycobacterial activity against Mycobacterium tuberculosis H37Rv in […] cells assessed as reduction in number of surviving bacteria at 1 ug/mL relative to control; type: functional
[8] = test system: Mycobacterium tuberculosis; assay: Antimycobacterial activity against Mycobacterium tuberculosis H37Rv in […] cells assessed as reduction in number of surviving bacteria at 0.25 ug/mL relative to control; type: functional

With `Cc1c(CN2CCSCC2)cc(-c2ccc(F)cc2)n1-c1ccc(C(C)C)cc1` the MIC (Mycobacterium avium) was > 16 µg/mL, the Ratio [1] was 0.5 and the MNTD50 (Vero) was 8 µg/mL. The MIC [2] was 16 µg/mL (≈ 39.2 µM), the MIC [3] was 8 µg/mL (≈ 19.6 µM) and the MIC (Mycobacterium marinum) was > 16 µg/mL.

For `Cc1ccc(-n2c(-c3ccc(Cl)cc3)cc(CN3CCSCC3)c2C)cc1`, the MIC (Mycobacterium avium) was > 16 µg/mL, the Ratio [1] was 32 and the MNTD50 (Vero) was 16 µg/mL. It also gave an MIC [2] of 0.5 µg/mL (≈ 1.26 µM), an MIC [4] of 0.5 µg/mL (≈ 1.26 µM) and an MIC [3] of 16 µg/mL (≈ 40.3 µM). It also gave an MIC (Mycobacterium marinum) of 16 µg/mL (≈ 40.3 µM).

With `Cc1c(CN2CCSCC2)cc(-c2ccc(C(C)C)cc2)n1-c1ccc(F)cc1` the MIC50 [5] was 0.5 µg/mL (≈ 1.22 µM), the MIC90 [5] was 0.5 µg/mL (≈ 1.22 µM) and the MIC (Mycobacterium avium) was 4 µg/mL (≈ 9.79 µM). For the same molecule, the Ratio [1] was 128, the MNTD50 (Vero) was 32 µg/mL and the MIC [2] was 0.25 µg/mL (≈ 0.612 µM). For the same molecule, the MIC [4] was 0.25 µg/mL (≈ 0.612 µM), the MIC [3] was > 16 µg/mL and the MIC (Mycobacterium marinum) was 8 µg/mL (≈ 19.6 µM).

Molecule `CCc1ccc(-n2c(-c3ccc(Cl)cc3)cc(CN3CCSCC3)c2C)cc1` has an MIC (Mycobacterium avium) of 16 µg/mL (≈ 38.9 µM), a Ratio [1] of 32 and an MNTD50 (Vero) of 16 µg/mL. It also gave an MIC [2] of 0.5 µg/mL (≈ 1.22 µM), an MIC [4] of 0.5 µg/mL (≈ 1.22 µM) and an MIC [3] of 8 µg/mL (≈ 19.5 µM). For the same molecule, the MIC (Mycobacterium marinum) was 4 µg/mL (≈ 9.73 µM).

For `CCc1ccc(-c2cc(CN3CCSCC3)c(C)n2-c2ccc(Cl)cc2)cc1`, the MIC (Mycobacterium avium) was 16 µg/mL (≈ 38.9 µM), the Ratio [1] was 64 and the MNTD50 (Vero) was 16 µg/mL. The MIC [2] was 0.25 µg/mL (≈ 0.608 µM), the MIC [4] was 0.25 µg/mL (≈ 0.608 µM) and the MIC [3] was 8 µg/mL (≈ 19.5 µM). The MIC (Mycobacterium marinum) was 8 µg/mL (≈ 19.5 µM).

`Cc1c(CN2CCSCC2)cc(-c2ccc(C(C)C)cc2)n1-c1ccc(Cl)cc1` showed an MIC (Mycobacterium avium) of 8 µg/mL (≈ 18.8 µM), a Ratio [1] of 64 and an MNTD50 (Vero) of 8 µg/mL. For the same molecule, the MIC [2] was 0.125 µg/mL (≈ 0.294 µM), the MIC [4] was 0.125 µg/mL (≈ 0.294 µM) and the MIC [3] was 8 µg/mL (≈ 18.8 µM). The MIC (Mycobacterium marinum) was 4 µg/mL (≈ 9.41 µM).

In the case of `CCc1ccc(-n2c(-c3ccc(F)cc3)cc(CN3CCSCC3)c2C)cc1`, the MIC (Mycobacterium avium) is reported as > 16 µg/mL, the Ratio [1] is reported as 1 and the MNTD50 (Vero) is reported as 2 µg/mL. The MIC [2] was 2 µg/mL (≈ 5.07 µM), the MIC [3] was 2 µg/mL (≈ 5.07 µM) and the MIC (Mycobacterium marinum) was > 16 µg/mL.

For `CCCc1ccc(-c2cc(CN3CCSCC3)c(C)n2-c2ccc(F)cc2)cc1`, the MIC (Mycobacterium avium) was > 16 µg/mL, the Ratio [1] was 2 and the MNTD50 (Vero) was 4 µg/mL. The MIC [2] was 2 µg/mL (≈ 4.89 µM), the MIC [3] was > 16 µg/mL and the MIC (Mycobacterium marinum) was > 16 µg/mL.

Work on `Cc1ccc(-c2cc(CN3CCSCC3)c(C)n2-c2ccc(F)cc2)cc1` yielded an MIC (Mycobacterium avium) of 8 µg/mL (≈ 21 µM), a Ratio [1] of 256 and an MNTD50 (Vero) of 64 µg/mL. The MIC [2] was 0.25 µg/mL (≈ 0.657 µM), the MIC [4] was 0.125 µg/mL (≈ 0.328 µM) and the MIC [3] was 16 µg/mL (≈ 42 µM). The MIC (Mycobacterium marinum) was 8 µg/mL (≈ 21 µM).

`Cc1c(CN2CCN(C)CC2)cc(-c2ccc(Cl)cc2)n1-c1ccc(Cl)cc1` gave an MIC (Mycobacterium avium) of 0.5 µg/mL (≈ 1.21 µM), a Ratio [1] of 4 and an MNTD50 (Vero) of 4 µg/mL. The MIC [2] was 1 µg/mL (≈ 2.41 µM), the MIC [4] was 2 µg/mL (≈ 4.83 µM) and the MIC [3] was 25 µg/mL (≈ 60.3 µM). The MIC (Mycobacterium marinum) was 100 µg/mL (≈ 241 µM).

`CO[C@H]1/C=C/O[C@@]2(C)Oc3c(C)c(O)c4c(O)c(c(/C=N/N5CCN(C)CC5)c(O)c4c3C2=O)NC(=O)/C(C)=C\C=C\[C@H](C)[C@H](O)[C@@H](C)[C@@H](O)[C@@H](C)[C@H](OC(C)=O)[C@@H]1C` [RIFAMPIN] gave an Activity [6] of 98.42%, an Activity [7] of 99.79% and an MIC (Mycobacterium avium) of 0.25 µg/mL (≈ 0.304 µM). For the same molecule, the Ratio [1] was 256, the MNTD50 (Vero) was 64 µg/mL and the MIC [2] was 0.25 µg/mL (≈ 0.304 µM). The Activity [8] was 95.79%, the MIC [4] was 0.25 µg/mL (≈ 0.304 µM) and the MIC [3] was 32 µg/mL (≈ 38.9 µM). It also gave an MIC (Mycobacterium marinum) of 0.5 µg/mL (≈ 0.608 µM).

For `CCc1ccc(-c2cc(CN3CCSCC3)c(C)n2-c2ccc(F)cc2)cc1`, the MIC (Mycobacterium avium) was > 16 µg/mL, the Ratio [1] was 16 and the MNTD50 (Vero) was 16 µg/mL. The MIC [2] was 1 µg/mL (≈ 2.53 µM), the MIC [3] was > 16 µg/mL and the MIC (Mycobacterium marinum) was > 16 µg/mL.

For `CCCc1ccc(-n2c(-c3ccc(Cl)cc3)cc(CN3CCSCC3)c2C)cc1`, the Activity [6] was 85.79%, the Activity [7] was 98.79% and the MIC50 [5] was 0.5 µg/mL (≈ 1.18 µM). It also gave an MIC90 [5] of 1 µg/mL (≈ 2.35 µM), an MIC (Mycobacterium avium) of 16 µg/mL (≈ 37.6 µM) and a Ratio [1] of 128. It also gave an MNTD50 (Vero) of 32 µg/mL, an MIC [2] of 0.25 µg/mL (≈ 0.588 µM) and an Activity [8] of 21.05%. For the same molecule, the MIC [4] was 0.25 µg/mL (≈ 0.588 µM), the MIC [3] was > 16 µg/mL and the MIC (Mycobacterium marinum) was 16 µg/mL (≈ 37.6 µM).

`Cc1ccc(-c2cc(CN3CCSCC3)c(C)n2-c2ccc(Cl)cc2)cc1` showed an MIC (Mycobacterium avium) of 16 µg/mL (≈ 40.3 µM), a Ratio [1] of 128 and an MNTD50 (Vero) of 64 µg/mL. For the same molecule, the MIC [2] was 0.5 µg/mL (≈ 1.26 µM), the MIC [4] was 0.5 µg/mL (≈ 1.26 µM) and the MIC [3] was > 16 µg/mL. The MIC (Mycobacterium marinum) was > 16 µg/mL.

In the case of `CCCc1ccc(-n2c(-c3ccc(F)cc3)cc(CN3CCSCC3)c2C)cc1`, the MIC (Mycobacterium avium) is reported as > 16 µg/mL, the Ratio [1] is reported as 4 and the MNTD50 (Vero) is reported as 4 µg/mL. The MIC [2] was 1 µg/mL (≈ 2.45 µM), the MIC [3] was 4 µg/mL (≈ 9.79 µM) and the MIC (Mycobacterium marinum) was 16 µg/mL (≈ 39.2 µM).

`Cc1c(CN2CCSCC2)cc(-c2ccc(Cl)cc2)n1-c1ccc(C(C)C)cc1` showed an Activity [6] of 84.21%, an Activity [7] of 98.74% and an MIC [5] of 0.25 µg/mL (≈ 0.588 µM). It also gave an MIC50 [5] of 0.25 µg/mL (≈ 0.588 µM), an MIC90 [5] of 0.5 µg/mL (≈ 1.18 µM) and an MIC (Mycobacterium avium) of 16 µg/mL (≈ 37.6 µM). It also gave a Ratio [1] of 128, an MNTD50 (Vero) of 32 µg/mL and an MIC [2] of 0.25 µg/mL (≈ 0.588 µM). The Activity [8] was 47.37%, the MIC [4] was 0.25 µg/mL (≈ 0.588 µM) and the MIC [3] was > 16 µg/mL. It also gave an MIC (Mycobacterium marinum) of 16 µg/mL (≈ 37.6 µM).

Work on `NNC(=O)c1ccncc1` [ISONIAZID] yielded an MIC [5] of 0.125 µg/mL (≈ 0.911 µM), an MIC50 [5] of 0.125 µg/mL (≈ 0.911 µM) and an MIC90 [5] of 0.25 µg/mL (≈ 1.82 µM). The MIC (Mycobacterium avium) was 32 µg/mL (≈ 233 µM), the Ratio [1] was 128 and the MNTD50 (Vero) was 32 µg/mL. It also gave an MIC [2] of 0.125 µg/mL (≈ 0.911 µM), an MIC [4] of 0.25 µg/mL (≈ 1.82 µM) and an MIC [3] of 64 µg/mL (≈ 467 µM). For the same molecule, the MIC (Mycobacterium marinum) was 16 µg/mL (≈ 117 µM).

`CCCc1ccc(-c2cc(CN3CCSCC3)c(C)n2-c2ccc(Cl)cc2)cc1` showed an MIC (Mycobacterium avium) of 4 µg/mL (≈ 9.41 µM), a Ratio [1] of 64 and an MNTD50 (Vero) of 16 µg/mL. For the same molecule, the MIC [2] was 0.25 µg/mL (≈ 0.588 µM), the MIC [4] was 0.125 µg/mL (≈ 0.294 µM) and the MIC [3] was > 16 µg/mL. It also gave an MIC (Mycobacterium marinum) of 4 µg/mL (≈ 9.41 µM).

With `[H]/N=C(/N)N[C@H]1[C@H](O)[C@@H](O)[C@H](O[C@@H]2O[C@@H](C)[C@](O)(C=O)[C@H]2O[C@@H]2O[C@@H](CO)[C@H](O)[C@@H](O)[C@@H]2NC)[C@@H](N/C(N)=N\[H])[C@@H]1O` (stereo in doubt) [STREPTOMYCIN] the MIC (Mycobacterium avium) was 8 µg/mL (≈ 13.8 µM), the Ratio [1] was >128 and the MNTD50 (Vero) was > 64 µg/mL. It also gave an MIC [2] of 0.5 µg/mL (≈ 0.86 µM), an MIC [4] of 4 µg/mL (≈ 6.88 µM) and an MIC [3] of 8 µg/mL (≈ 13.8 µM). The MIC (Mycobacterium marinum) was 32 µg/mL (≈ 55 µM).
